# Biological target: EGFR (human) (UniProt P00533)
# Settings: a431
# EGFR (human), sequence (P00533 whole entry, looked up): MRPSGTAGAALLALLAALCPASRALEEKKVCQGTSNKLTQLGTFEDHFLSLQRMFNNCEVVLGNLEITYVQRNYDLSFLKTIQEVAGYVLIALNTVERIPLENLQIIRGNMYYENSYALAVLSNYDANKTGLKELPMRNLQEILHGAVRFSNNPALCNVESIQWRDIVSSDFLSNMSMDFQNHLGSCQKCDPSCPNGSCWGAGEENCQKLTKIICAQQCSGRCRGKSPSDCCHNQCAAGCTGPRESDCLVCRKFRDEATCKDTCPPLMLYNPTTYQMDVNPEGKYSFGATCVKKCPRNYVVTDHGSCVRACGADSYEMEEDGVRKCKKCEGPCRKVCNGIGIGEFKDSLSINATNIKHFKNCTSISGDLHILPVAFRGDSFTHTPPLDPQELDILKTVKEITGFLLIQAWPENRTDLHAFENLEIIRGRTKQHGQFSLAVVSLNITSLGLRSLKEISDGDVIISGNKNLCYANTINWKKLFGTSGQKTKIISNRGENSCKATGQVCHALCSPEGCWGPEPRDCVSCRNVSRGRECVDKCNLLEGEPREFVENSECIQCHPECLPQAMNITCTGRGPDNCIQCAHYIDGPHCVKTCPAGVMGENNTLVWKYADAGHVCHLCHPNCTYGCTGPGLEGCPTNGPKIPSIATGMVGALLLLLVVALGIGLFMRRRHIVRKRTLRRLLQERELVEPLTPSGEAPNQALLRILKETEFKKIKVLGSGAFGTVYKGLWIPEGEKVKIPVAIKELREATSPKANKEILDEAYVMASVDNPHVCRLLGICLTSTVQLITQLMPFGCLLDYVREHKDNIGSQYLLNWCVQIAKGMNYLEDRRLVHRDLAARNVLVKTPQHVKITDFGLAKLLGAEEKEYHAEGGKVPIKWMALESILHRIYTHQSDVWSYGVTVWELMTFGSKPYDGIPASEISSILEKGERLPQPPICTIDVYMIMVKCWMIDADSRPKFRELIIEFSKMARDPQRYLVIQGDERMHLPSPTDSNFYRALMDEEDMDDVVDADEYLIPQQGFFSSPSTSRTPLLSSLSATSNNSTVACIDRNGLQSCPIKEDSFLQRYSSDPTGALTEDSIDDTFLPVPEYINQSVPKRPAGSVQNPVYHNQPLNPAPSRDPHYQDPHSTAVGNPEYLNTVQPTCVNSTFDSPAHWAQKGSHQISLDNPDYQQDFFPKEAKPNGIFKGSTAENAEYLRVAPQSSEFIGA
row,SMILES,IC50
1,CCOc1cc2ncc(C#N)c(Nc3ccc(Nc4nnc(C(F)(F)F)s4)c(Cl)c3)c2cc1NC(=O)/C=C/CN(C)C,0.728 µg/mL
2,CCOc1cc2ncc(C#N)c(Nc3ccc(Sc4nc(-c5ccccc5)cs4)c(C(F)(F)F)c3)c2cc1NC(=O)/C=C/CN(C)C,0.3 µg/mL
3,COc1cc2c(Nc3ccc4cn[nH]c4c3)c(C#N)cnc2cc1OCCCN1CCOCC1,> 5 µg/mL
4,COc1cc2ncc(C#N)c(Nc3ccc(N(Cc4cccnc4)C(C)=O)c(Cl)c3)c2cc1NC(C)=O,3.68 µg/mL

# Other lines, results leading:
row,IC50,SMILES
1,1.79 µg/mL,CCOc1cc2ncc(C#N)c(Nc3ccc(Nc4nnc(C(F)(F)F)s4)c(Cl)c3)c2cc1[N+](=O)[O-]
2,0.02 µg/mL,COc1cc2ncc(C#N)c(Nc3ccc(Sc4nccn4C)c(Cl)c3)c2cc1NC(=O)/C=C/CN(C)C
3,1.63 µg/mL,COc1cc2ncc(C#N)c(Nc3ccc(-n4ccnc4)c(Cl)c3)c2cc1N
4,1.6 µg/mL,COc1cc2ncc(C#N)c(Nc3ccc(N(Cc4cccnc4)C(C)=O)c(Cl)c3)c2cc1[N+](=O)[O-]
5,2.28 µg/mL,COc1cc2ncc(C#N)c(Nc3ccc(Sc4nc5ccccc5c(=O)[nH]4)c(Cl)c3)c2cc1[N+](=O)[O-]
6,> 5 µg/mL,COc1cc2ncc(C#N)c(Nc3ccc(N(Cc4cccnc4)C(C)=O)c(Cl)c3)c2cc1N
